# Laboratory results taken from ChEMBL document CHEMBL3272278, “Electronic factors in the structure-activity relationship of some 1,4-benzodiazepin-2-ones” (1977).
# Activity calls are given as the source filed them. The rule behind the calls is not given here.
# Tests used:
# Assay type in all cases: functional
# Mus musculus [1] = species on record: Mus musculus; test: Sedative activity in mouse
# Mus musculus [2] = species on record: Mus musculus; test: Muscle relaxant activity in mouse
# Mus musculus [3] = species on record: Mus musculus; test: Taming activity in mouse assessed as suppression of electrical current-induced aggressive behavior by foot-shock test
# Mus musculus [4] = species on record: Mus musculus; test: Anticonvulsion activity in mouse assessed as protection against pentylenetetrazole-induced convulsion
# Felis catus = species on record: Felis catus; test: Muscle relaxant activity in cat suspended by scruff of neck assessed as relaxation of body and hind legs
SMILES,log(1/ED50) (Mus musculus [1]),log(1/ED50) (Mus musculus [2]),log(1/MED) (Mus musculus [3]),log(1/ED50) (Mus musculus [4]),log(1/MED) (Felis catus),Activity (Mus musculus [1]),Activity (Mus musculus [2]),Activity (Mus musculus [3]),Activity (Mus musculus [4]),ED50 (Mus musculus [3]; Mus musculus) [mg/kg]
O=C1CN=C(c2cccc(F)c2)c2cc(Cl)ccc2N1,0.159,0.159,0.858,1.8368,2.159,,,,,
COc1ccc(C2=NCC(=O)Nc3ccc(Cl)cc32)cc1,,,,-0.4253,,inactive,inactive,inactive,,
CN(C)c1ccc2c(c1)C(c1ccccc1)=NCC(=O)N2C,0.2908,0.2908,0.8648,1.6887,2.4669,,,,,
N#Cc1ccc2c(c1)C(c1ccccc1)=NCC(=O)N2,0.5416,0.5416,0.8146,2.3027,2.7177,,,,,
CSc1ccc2c(c1)C(c1ccccc1)=NCC(=O)N2,0.2073,0.2073,1.1493,1.1493,2.1493,,,,,
Cc1cc([N+](=O)[O-])cc2c1NC(=O)CN=C2c1ccccc1,1.1688,1.1688,1.1688,1.5613,2.7709,,,,,
CN1C(=O)CN=C(c2ccc(Cl)cc2)c2cc(Cl)ccc21 [RO-54864],0.5037,0.5037,,,,,,inactive,inactive,
CCSc1ccc2c(c1)C(c1ccccc1)=NCC(=O)N2,,,,0.2702,,,,inactive,,
O=C1CN=C(c2ccccc2)c2cccc([N+](=O)[O-])c2N1,-0.2503,-0.2503,,,,,,inactive,inactive,
CN1C(=O)CN=C(c2ccccc2F)c2cc(F)ccc21,0.1457,0.1457,,0.3325,1.7574,,,inactive,,
CN1C(=O)CN=C(c2ccccc2)c2cc([N+](=O)[O-])ccc21 [NIMETAZEPAM],1.4698,1.4698,2.0719,2.6917,3.4698,,,,,
O=C1CN=C(c2ccccc2)c2ccc(Cl)cc2N1,,,,-0.0917,,inactive,inactive,inactive,,
N#Cc1ccc2c(c1)C(c1ccccc1F)=NCC(=O)N2,0.5705,0.5705,1.7466,2.6327,3.7466,,,,,
CN1C(=O)CN=C(c2ccccc2)c2cc(C#N)ccc21,1.1382,1.1382,1.7404,2.4393,2.7404,,,,,
O=C1CN=C(c2ccccc2)c2ccc(C(F)(F)F)cc2N1,-0.1703,-0.1703,,,,,,inactive,,
CN1C(=O)CN=C(c2ccccc2)c2cc(Cl)ccc21 [DIAZEPAM],0.9769,0.9769,1.454,2.3079,3.153,,,,,
O=C1CN=C(c2ccccc2F)c2cc(Cl)ccc2N1 [N-DESALKYL-2-OXOQUAZEPAM],0.858,0.858,1.7611,3.4601,3.7611,,,,,
O=C1CN=C(c2ccccc2)c2cc(Br)ccc2N1,1.1002,1.1002,1.1971,2.1971,2.7992,,,,,
O=C1CN=C(c2ccccc2)c2c(Cl)cccc2N1,,,,0.1311,,inactive,inactive,inactive,,
O=C1CN=C(c2cccc([N+](=O)[O-])c2)c2cc([N+](=O)[O-])ccc2N1,-0.0888,-0.0888,,0.8142,,,,inactive,,
CSc1ccc2c(c1)C(c1ccccc1)=NCC(=O)N2C,0.7724,0.7724,0.8693,0.5963,2.4714,,,,,
O=C1CN=C(c2ccccc2)c2cc([N+](=O)[O-])ccc2N1 [NITRAZEPAM],1.2726,1.2726,1.7497,2.7497,3.4487,,,,,
Cc1cccc(C2=NCC(=O)Nc3ccc(Cl)cc32)c1,,,,0.8519,,inactive,inactive,inactive,,
O=C1CN=C(c2ccccc2F)c2cc(Br)ccc2N1,1.5223,1.5223,2.1244,2.8233,3.8233,,,,,

SMILES,log(1/ED50) (Mus musculus [1]),log(1/ED50) (Mus musculus [2]),log(1/MED) (Mus musculus [3]),log(1/ED50) (Mus musculus [4]),log(1/MED) (Felis catus),Activity (Mus musculus [1]),Activity (Mus musculus [2]),Activity (Mus musculus [3]),Activity (Mus musculus [4]),ED50 (Mus musculus [3]; Mus musculus) [mg/kg]
CN1C(=O)CN=C(c2ccccc2F)c2cc([N+](=O)[O-])ccc21 [FLUNITRAZEPAM],2.4955,2.4955,2.5925,2.4164,4.1945,,,,,
Cc1cc2c(cc1C)C(c1ccccc1)=NCC(=O)N2,,,,0.2978,,inactive,inactive,inactive,,
O=C1CN=C(c2ccccc2)c2cc(F)ccc2N1 [RO-053061],0.2287,0.2287,0.4048,,1.8028,,,,inactive,
O=C1CN=C(c2ccccc2[N+](=O)[O-])c2cc([N+](=O)[O-])ccc2N1,,,0.9112,2.9691,,inactive,inactive,,,
O=C1CN=C(c2ccccc2C(F)(F)F)c2cc(C(F)(F)F)ccc2N1,1.0934,1.0934,1.2695,1.9685,2.8716,,,,,
Cc1ccc2c(c1)C(c1ccccc1)=NCC(=O)N2,,,,0.1549,,inactive,inactive,inactive,,
O=C1CN=C(c2ccccc2Br)c2cc(Cl)ccc2N1,0.8443,0.8443,1.8443,2.7651,4.0661,,,,,
Cc1cc(C)c2c(c1)C(c1ccccc1)=NCC(=O)N2,-0.2316,-0.2316,0.4216,,,,,,inactive,
CS(=O)(=O)c1ccc2c(c1)C(c1ccccc1)=NCC(=O)N2,,,,0.2811,,inactive,inactive,inactive,,
O=C1CN=C(c2ccccc2)c2cc(Cl)cc(Cl)c2N1,0.3081,0.3081,,1.5651,2.1831,,,inactive,,
Cc1ccccc1C1=NCC(=O)Nc2ccc(Cl)cc21,0.2779,0.2779,0.454,1.5675,2.755,,,,,
CN1C(=O)CN=C(c2ccccc2F)c2ccccc21 [RO-054520],0.1271,0.1271,0.8261,1.525,2.4281,,,,,
O=C1CN=C(c2ccccc2)c2cc(C(F)(F)F)ccc2N1 [RO-052904],1.4829,1.4829,1.4829,2.4829,3.4829,,,,,
C[S+]([O-])c1ccc2c(c1)C(c1ccccc1)=NCC(=O)N2 (configuration not stated),0.2313,0.2313,,1.0764,1.8722,,,inactive,,
CN(C)c1ccc2c(c1)C(c1ccccc1)=NCC(=O)N2,,,,0.8224,1.4456,inactive,inactive,inactive,,
COc1ccccc1C1=NCC(=O)Nc2ccc(Cl)cc21,0.0007,0.0007,0.4778,1.6027,2.4778,,,,,
CN1C(=O)CN=C(c2ccccc2F)c2cc(Cl)ccc21 [FLUDIAZEPAM],1.4807,1.4807,1.7817,2.8766,3.7817,,,,,
CN(C)c1ccc2c(c1)C(c1ccccc1Cl)=NCC(=O)N2C,0.3391,0.3391,0.6121,2.8162,1.9131,,,,,
COc1cccc(C2=NCC(=O)Nc3ccc(Cl)cc32)c1,,,,2.2225,,inactive,inactive,inactive,,
CN1C(=O)CN=C(c2ccccc2Cl)c2cc([N+](=O)[O-])ccc21 [RO-054082],1.0407,1.0407,2.1198,3.4386,3.8188,,,,,
COc1cc2c(cc1Br)C(c1ccccc1)=NCC(=O)N2,0.3616,0.3616,0.6346,1.6626,,,,,,
O=C1CN=C(c2ccccc2Cl)c2cc([N+](=O)[O-])ccc2N1 [CLONAZEPAM],,,1.1979,3.2948,3.8,inactive,inactive,,,
O=C1CN=C(c2ccccc2Cl)c2cc(Cl)ccc2N1 [DELORAZEPAM],0.4842,0.4842,0.8821,2.8821,3.4842,,,,,2
